Ends that are not written are not given here. Peptide text beside a SMILES is read from it.
How the values were obtained:
E. coli = conditions: cited from earlier work
P. aeruginosa = conditions: cited from earlier work
S. aureus = conditions: cited from earlier work
[1] = set-up: method as in PMID 9038346; conditions: salt from 50 to 125 mmol/L; cited from earlier work
E. coli ATCC 25922 = conditions: ATCC 25922, 2 h
Description: (§1) The antimicrobial activities of VIP and its analogues were tested against S. aureus ATCC 25923 and E. coli ATCC 25922 according to the method reported by Wani et al. with slight modification. The final peptide concentrations ranged from 0.5 to 256 μM. The tests were performed in triplicate using 4 replicates for each experiment. In addition, S. aureus ATCC 25923 and E. coli ATCC 25922 (2 × 10^6 CFU/mL) were treated with natural VIP and VIP8 at MIC for 2 h. […] The haemolytic activity of VIP and VIP derivatives were measured using porcine erythrocytes according to previous method. MTT (3-[4,5 dimethylthiozol-2-yl]-2,5-diphenyltetrazolium bromide) was used to determine the cytotoxicity of VIP and its analogue on porcine intestinal epithelial cells IPEC-J2. Stable experiments were conducted with reference to the literature with slightly changes. First, the pH of the mediums was adjusted to acidic (pH 4.0, pH 5.0, and pH 6.0) and basic (pH 8.0, pH 9.0, and pH 10.0) conditions. To investigate the effects of ion strength, the bacterial mediums were supplemented with different concentrations of NaCl (20 mM, 60 mM, and 180 mM) or MgCl2 (1 mM, 25 mM, and 50 mM). Then, bacteria were incubated with VIP, VIP analogues 2 and 8, respectively. After 3 h of incubation, bacterial viability was measured with a Synergy HT multimode reader (BioTek, Winooski, VT, USA) at 600 nm.
(§2) Both the agar diffusion test and modified broth microdilution method were used to evaluate the antimicrobial activity of recombinant expressed VIP8. For the Oxford cup agar diffusion, the sample was added to an Oxford cup, which was then placed on a Mueller-Hinton agar plate containing 1 × 10^5 colony-forming units of S. aureus […]. Chemically-synthesized VIP8 and ampicillin were used as the positive control. The minimal inhibition concentration was determined by the method reported by Wani et al..

S. aureus ATCC 25923 = conditions: ATCC 25923, 2 h
Description: as §1, §2

## human β-defensin 4 (EFELDRICGYGTARCRKKCRSQEYRIGRCPNTYACCLRKWDESLLNRTKP; ends and bridges not checked; cysteine pairing not given here; UniProt Q8WTQ1 23-72, looked up) [hBD-4, human β-defensin quoted from the literature]
E. coli
  Antimicrobial activity at high concentrations of NaCl: attenuated
P. aeruginosa
  Antimicrobial activity at high concentrations of NaCl: attenuated
S. aureus
  Antimicrobial activity at high concentrations of NaCl: attenuated

## human β-defensin 1 (DHYNCVSSGGQCLYSACPIFTKIQGTCYRGKAKCCK; ends and bridges not checked; cysteine pairing not given here; UniProt P60022 33-68, looked up) [hBD-1, human β-defensin quoted from the literature]
[1]
  Activity remaining at raised salt concentration: 12%

## CC[C@H](C)[C@H](NC(=O)[C@H](C)NC(=O)[C@H](C)NC(=O)[C@H](CC(C)C)NC(=O)[C@H](Cc1ccc(O)cc1)NC(=O)[C@H](CCCNC(=N)N)NC(=O)[C@H](CCCNC(=N)N)NC(=O)[C@@H](NC(=O)[C@H](C)NC(=O)[C@H](CC(C)C)NC(=O)[C@H](CCC(N)=O)NC(=O)[C@H](CCCNC(=N)N)NC(=O)[C@H](CCCNC(=N)N)NC(=O)[C@H](CC(C)C)NC(=O)[C@H](CCCNC(=N)N)NC(=O)[C@@H](NC(=O)[C@H](Cc1ccc(O)cc1)NC(=O)[C@H](CC(N)=O)NC(=O)[C@H](C)NC(=O)[C@@H](NC(=O)[C@@H](N)Cc1ccccc1)[C@@H](C)O)[C@@H](C)O)C(C)C)C(=O)N[C@@H](CC(C)C)C(=O)NCC(=O)N[C@@H](CCCNC(=N)N)C(=O)N[C@@H](CCCNC(=N)N)C(=O)O [VIP8] (H-FTANYTRLRRQLAVRRYLAAILGRR-OH)
E. coli ATCC 25922
  MBC (minimum bactericidal concentration): 4 µM
  MIC (minimum inhibitory concentration): 2 µM
S. aureus ATCC 25923
  MBC (minimum bactericidal concentration): 4 µM
  MIC (minimum inhibitory concentration): 2 µM
3T3-L1 cells
  Cytotoxicity (in words): no cytotoxicity

Source: article PMC6150413 (Molecules : A Journal of Synthetic Chemistry and Natural …, 2017)
